Calls of active or inactive are those of the source. The calls are words filed in the database; no cut-off is given here.
What was measured:
[1] = target: T1, Inosine-5'-monophosphate dehydrogenase (Pseudomonas aeruginosa (strain ATCC 15692 / DSM 22644 / CIP 104116 / JCM14847 / LMG 12228 / 1C / PRS 101 / PAO1)) (UniProt Q9HXM5); test: Inhibition of Pseudomonas aeruginosa IMPDH at 50.8 uM using IMP as substrate in the presence of NAD+ incubated for 70 secs relative to control
T1 sequence (whole entry): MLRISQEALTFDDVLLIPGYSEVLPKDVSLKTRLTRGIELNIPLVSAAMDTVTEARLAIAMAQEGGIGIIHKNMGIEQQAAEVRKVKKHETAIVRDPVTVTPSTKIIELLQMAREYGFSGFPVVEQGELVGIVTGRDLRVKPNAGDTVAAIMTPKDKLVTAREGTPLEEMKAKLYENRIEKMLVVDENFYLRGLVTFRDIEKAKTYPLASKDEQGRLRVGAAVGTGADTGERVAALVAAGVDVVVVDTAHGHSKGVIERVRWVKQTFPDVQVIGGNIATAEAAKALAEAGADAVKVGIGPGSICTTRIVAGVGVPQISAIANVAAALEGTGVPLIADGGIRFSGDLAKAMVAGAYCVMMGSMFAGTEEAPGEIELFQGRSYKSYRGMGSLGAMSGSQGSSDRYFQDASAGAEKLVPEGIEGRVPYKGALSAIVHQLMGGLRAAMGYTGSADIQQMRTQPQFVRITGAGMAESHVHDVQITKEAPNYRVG

[2] = target: T1, Inosine-5'-monophosphate dehydrogenase (Pseudomonas aeruginosa (strain ATCC 15692 / DSM 22644 / CIP 104116 / JCM14847 / LMG 12228 / 1C / PRS 101 / PAO1)); test: Non-competitive inhibition of Pseudomonas aeruginosa IMPDH using IMP as substrate and NAD+ in presence of ATP incubated for 70 secs
[3] = target: T2, Inosine-5'-monophosphate dehydrogenase (Pseudomonas aeruginosa (strain ATCC 15692 / DSM 22644 / CIP 104116 / JCM14847 / LMG 12228 / 1C / PRS 101 / PAO1), UniProt Q9HXM5); test: Inhibition of Pseudomonas aeruginosa IMPDH using IMP as substrate in the presence of NAD+ incubated for 70 secs
T2 sequence (Q9HXM5 whole entry): T1 sequence (whole entry)

[4] = target: T1, Inosine-5'-monophosphate dehydrogenase (Pseudomonas aeruginosa (strain ATCC 15692 / DSM 22644 / CIP 104116 / JCM14847 / LMG 12228 / 1C / PRS 101 / PAO1)); test: Inhibition of Pseudomonas aeruginosa IMPDH at 49.8 uM using IMP as substrate in the presence of NAD+ incubated for 70 secs relative to control
[5] = target: T1, Inosine-5'-monophosphate dehydrogenase (Pseudomonas aeruginosa (strain ATCC 15692 / DSM 22644 / CIP 104116 / JCM14847 / LMG 12228 / 1C / PRS 101 / PAO1)); test: Inhibition of Pseudomonas aeruginosa IMPDH at 47.2 uM using IMP as substrate in the presence of NAD+ incubated for 70 secs relative to control
[6] = target: T1, Inosine-5'-monophosphate dehydrogenase (Pseudomonas aeruginosa (strain ATCC 15692 / DSM 22644 / CIP 104116 / JCM14847 / LMG 12228 / 1C / PRS 101 / PAO1)); test: Inhibition of Pseudomonas aeruginosa IMPDH assessed as Km for IMP at 20 uM using IMP as substrate in presence of 2 mM NAD+ and 0.2 mM MgATP (reference value: 483 +/- 65 microM)
[7] = target: T1, Inosine-5'-monophosphate dehydrogenase (Pseudomonas aeruginosa (strain ATCC 15692 / DSM 22644 / CIP 104116 / JCM14847 / LMG 12228 / 1C / PRS 101 / PAO1)); test: Competitive inhibition of Pseudomonas aeruginosa IMPDH using IMP as substrate and NAD+ in presence of varying ATP incubated for 70 secs
[8] = target: T1, Inosine-5'-monophosphate dehydrogenase (Pseudomonas aeruginosa (strain ATCC 15692 / DSM 22644 / CIP 104116 / JCM14847 / LMG 12228 / 1C / PRS 101 / PAO1)); test: Inhibition of Pseudomonas aeruginosa IMPDH at 38.5 uM using IMP as substrate in the presence of NAD+ incubated for 70 secs relative to control
[9] = target: T1, Inosine-5'-monophosphate dehydrogenase (Pseudomonas aeruginosa (strain ATCC 15692 / DSM 22644 / CIP 104116 / JCM14847 / LMG 12228 / 1C / PRS 101 / PAO1)); test: Inhibition of Pseudomonas aeruginosa IMPDH at 40 uM using IMP as substrate in the presence of NAD+ incubated for 70 secs relative to control
[10] = target: T1, Inosine-5'-monophosphate dehydrogenase (Pseudomonas aeruginosa (strain ATCC 15692 / DSM 22644 / CIP 104116 / JCM14847 / LMG 12228 / 1C / PRS 101 / PAO1)); test: Inhibition of Pseudomonas aeruginosa IMPDH assessed as Km for IMP at 10 uM using IMP as substrate in presence of 2 mM NAD+ and 0.2 mM MgATP (reference value: 483 +/- 65 microM)
[11] = target: T1, Inosine-5'-monophosphate dehydrogenase (Pseudomonas aeruginosa (strain ATCC 15692 / DSM 22644 / CIP 104116 / JCM14847 / LMG 12228 / 1C / PRS 101 / PAO1)); test: Inhibition of Pseudomonas aeruginosa IMPDH at 37.1 uM using IMP as substrate in the presence of NAD+ incubated for 70 secs relative to control
[12] = target: T1, Inosine-5'-monophosphate dehydrogenase (Pseudomonas aeruginosa (strain ATCC 15692 / DSM 22644 / CIP 104116 / JCM14847 / LMG 12228 / 1C / PRS 101 / PAO1)); test: Inhibition of Pseudomonas aeruginosa IMPDH at 54.6 uM using IMP as substrate in the presence of NAD+ incubated for 70 secs relative to control
[13] = target: T1, Inosine-5'-monophosphate dehydrogenase (Pseudomonas aeruginosa (strain ATCC 15692 / DSM 22644 / CIP 104116 / JCM14847 / LMG 12228 / 1C / PRS 101 / PAO1)); test: Inhibition of Pseudomonas aeruginosa IMPDH at 43.4 uM using IMP as substrate in the presence of NAD+ incubated for 70 secs relative to control
[14] = target: T1, Inosine-5'-monophosphate dehydrogenase (Pseudomonas aeruginosa (strain ATCC 15692 / DSM 22644 / CIP 104116 / JCM14847 / LMG 12228 / 1C / PRS 101 / PAO1)); test: Inhibition of Pseudomonas aeruginosa IMPDH at 55.9 uM using IMP as substrate in the presence of NAD+ incubated for 70 secs relative to control
[15] = target: T1, Inosine-5'-monophosphate dehydrogenase (Pseudomonas aeruginosa (strain ATCC 15692 / DSM 22644 / CIP 104116 / JCM14847 / LMG 12228 / 1C / PRS 101 / PAO1)); test: Inhibition of Pseudomonas aeruginosa IMPDH at 18.2 uM using IMP as substrate in the presence of NAD+ incubated for 70 secs relative to control
[16] = target: T1, Inosine-5'-monophosphate dehydrogenase (Pseudomonas aeruginosa (strain ATCC 15692 / DSM 22644 / CIP 104116 / JCM14847 / LMG 12228 / 1C / PRS 101 / PAO1)); test: Inhibition of Pseudomonas aeruginosa IMPDH at 48.2 uM using IMP as substrate in the presence of NAD+ incubated for 70 secs relative to control
[17] = compound: N#CC1=C(N)Oc2[nH]c(=O)[nH]c(=O)c2C1c1ccc([N+](=O)[O-])cc1; test: (§1) Inhibition of Pseudomonas aeruginosa IMPDH assessed as Vmax for IMP at 10 uM using IMP as substrate in presence of 2 mM NAD+ and 0.2 mM MgATP (reference value: 3.74 +/- 0.22 U/mg)
[18] = compound: CC(=O)Nc1ccc(C2C3=C(Nc4c2c(=O)[nH]c(=O)n4Cc2ccccc2)c2ccccc2C3=O)cc1; test: as §1
[19] = compound: CCOc1ccc(-c2cc(C(=O)O)nc3[nH]nc(-c4ccc(Cl)cc4)c23)cc1; test: (§2) Inhibition of Pseudomonas aeruginosa IMPDH assessed as Vmax for IMP at 20 uM using IMP as substrate in presence of 2 mM NAD+ and 0.2 mM MgATP (reference value: 3.74 +/- 0.22 U/mg)
[20] = compound: CC(=O)N1CCOc2cc(S(=O)(=O)Nc3ccc(F)c(Cl)c3)ccc21; test: as §2

Question: What does the source list for `COc1ccccc1-c1noc(CCC(=O)Nc2ccc(Cl)cc2)n1`?
Answer: inhibition [1]: 70.6%; inhibition [2]: Active; IC50 ([3]; read-out: IC50): 2600 nM

Question: How did the inhibition [4] turn out when `COc1ccc(-n2c(=O)[nH]cc(C(=O)Nc3cc(C)ccc3C)c2=O)cc1` was run?
Answer: The inhibition was 108%.

Question: And the IC50 [3]?
Answer: Its IC50 is “Not Active”.

Question: What does the source list for `CC(=O)N1CCOc2cc(S(=O)(=O)Nc3ccc(F)c(Cl)c3)ccc21`?
Answer: inhibition [5]: 81.5%; K0.5 [6]: 747 µM; inhibition [7]: Active; IC50 ([3]; read-out: IC50): 17100 nM

Question: How did the inhibition [8] turn out when `COc1ccc(CCNc2nc3cc(Cl)c(Cl)cc3nc2-n2nc(C)cc2C)cc1OC` was run?
Answer: The inhibition was 77.8%.

Question: What about the inhibition [9] of the same molecule?
Answer: Its inhibition is 20%.

Question: For `CC(=O)Nc1ccc(C2C3=C(Nc4c2c(=O)[nH]c(=O)n4Cc2ccccc2)c2ccccc2C3=O)cc1` (configuration not stated), which K0.5 [10] is on record?
Answer: The K0.5 was 1310 µM.

Question: What about the inhibition [7] of the same molecule?
Answer: The inhibition was “Active”.

Question: What about the inhibition [11] of the same molecule?
Answer: The inhibition was 93.8%.

Question: What about the IC50 ([3]; read-out: IC50) of the same molecule?
Answer: The IC50 was 2800 nM.

Question: With `N#CC1=C(N)Oc2[nH]c(=O)[nH]c(=O)c2C1c1ccc([N+](=O)[O-])s1` (configuration not stated) as the molecule, how does the inhibition [7] read?
Answer: The inhibition was “Active”.

Question: And the inhibition [12]?
Answer: Its inhibition is 85.7%.

Question: What about the IC50 ([3]; read-out: IC50) of the same molecule?
Answer: Its IC50 is 4000 nM.

Question: How did the inhibition [2] turn out when `O=C(CCS(=O)(=O)c1ccc2c(c1)SCC(=O)N2)NCCCc1ccccc1` was run?
Answer: The inhibition was “Active”.

Question: And the inhibition [13]?
Answer: The inhibition was 76.7%.

Question: What about the IC50 ([3]; read-out: IC50) of the same molecule?
Answer: Its IC50 is 3100 nM.

Question: `COc1cccc(CNC(=O)Cn2ncc3ccccc32)c1OC` was tested. Which inhibition [14] did it give?
Answer: The inhibition was 95.2%.

Question: And the IC50 [3]?
Answer: Its IC50 is “Not Active”.

Question: Which inhibition [15] does the source give for `COc1cc(-c2ccc(/N=N/c3ccc4c(S(=O)(=O)O)cc(S(=O)(=O)O)c(N)c4c3O)c(OC)c2)ccc1/N=N/c1ccc2c(S(=O)(=O)O)cc(S(=O)(=O)O)c(N)c2c1O` [CHICAGO SKY BLUE SODIUM] here?
Answer: Its inhibition is 92.2%.

Question: What about the inhibition [7] of the same molecule?
Answer: The inhibition was “Active”.

Question: What about the IC50 ([3]; read-out: IC50) of the same molecule?
Answer: Its IC50 is 1600 nM.

Question: Which inhibition [16] does the source give for `Cc1ccc(-n2c(=O)[nH]cc(C(=O)Nc3ccc(C(C)C)cc3)c2=O)cc1C` here?
Answer: The inhibition was 75.4%.

Question: What about the IC50 [3] of the same molecule?
Answer: The IC50 was “Not Active”.

B1: Inosine-5'-monophosphate dehydrogenase (Pseudomonas aeruginosa (strain ATCC 15692 / DSM 22644 / CIP 104116 / JCM14847 / LMG 12228 / 1C / PRS 101 / PAO1)), … (protein)
chain: T1 sequence (whole entry)
Question: Which results are given for B1?
Answer: Vmax [17]: 3.64 U/mg; Vmax [18]: 3.34 U/mg; Vmax [19]: 3.14 U/mg; Vmax [20]: 2.81 U/mg
